Test results reported in paper PMC9607159, “High-Resolution Bioassay Profiling with Complemented Sensitivity and Resolution for Pancreatic Lipase Inhibitor Screening” (Molecules, 2022).
Like-named read-outs stand apart in the source and are kept apart here.

Target: T1, pancreatic lipase (PL) (Sus scrofa, UniProt P00591)
T1 construct: gene PNLIP
T1 sequence (P00591 1-450): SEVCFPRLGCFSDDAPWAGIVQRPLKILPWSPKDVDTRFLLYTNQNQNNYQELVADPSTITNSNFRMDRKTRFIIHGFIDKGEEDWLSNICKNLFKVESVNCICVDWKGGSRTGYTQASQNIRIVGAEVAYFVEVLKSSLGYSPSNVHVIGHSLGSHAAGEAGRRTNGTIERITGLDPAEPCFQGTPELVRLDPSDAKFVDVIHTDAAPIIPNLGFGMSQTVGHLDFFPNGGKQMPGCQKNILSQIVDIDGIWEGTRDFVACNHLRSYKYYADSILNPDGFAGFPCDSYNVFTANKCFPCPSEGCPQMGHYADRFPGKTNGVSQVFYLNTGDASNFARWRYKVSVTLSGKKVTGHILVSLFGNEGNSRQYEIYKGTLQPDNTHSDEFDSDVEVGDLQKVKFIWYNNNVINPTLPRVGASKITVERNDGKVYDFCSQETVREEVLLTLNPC
Assay: fluorogenic 4-MUO lipase assay dose-response; also nanofractionation bioassay profiling and ligand fishing with PL magnetic beads
Format: biochemical

SMILES	IC50 (read-out: IC50)	IC50
O=C(O[C@@H]1Cc2c(O)cc(O)cc2O[C@@H]1c1cc(O)c(O)c(O)c1)c1cc(O)c(O)c(O)c1 [(-)-Epigallocatechin gallate]	0.97 µM	
O=c1cc(-c2ccc(O)c(O)c2)oc2cc(O)cc(O)c12 [luteolin]		30.6 µM
